Results reported in the supplement of paper PMC10307832.

Experiments:
Test in all cases: relative viability (nuclei count vs DMSO), 5 days (fraction); higher = more cells survive
AZD8055 + Phenformin = compound: COc1ccc(-c2ccc3c(N4CCOC[C@@H]4C)nc(N4CCOC[C@@H]4C)nc3n2)cc1CO [AZD8055] + N=C(N)NC(=N)NCCc1ccccc1 [Phenformin] (partner 250 µM)
Outline: (§1)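 Relative viability equals treated-well nuclei counts divided by vehicle-well nuclei counts. Counts came from 4× images of lung cancer cell lines grown in 1536-well plates for 5 days after pin-tool dosing on the day after seeding. Dosing used one drug alone or a fixed anchor-drug dose plus five library-drug doses (not always all listed) in √10 steps, and values are medians of duplicate plates.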

AZD8055 + Pictilisib = compound: COc1ccc(-c2ccc3c(N4CCOC[C@@H]4C)nc(N4CCOC[C@@H]4C)nc3n2)cc1CO [AZD8055] + CS(=O)(=O)N1CCN(Cc2cc3nc(-c4cccc5[nH]ncc45)nc(N4CCOCC4)c3s2)CC1 [Pictilisib] (partner 1 µM)
Outline: as §1

AZD8055 + Decitabine = compound: COc1ccc(-c2ccc3c(N4CCOC[C@@H]4C)nc(N4CCOC[C@@H]4C)nc3n2)cc1CO [AZD8055] + Nc1ncn([C@H]2C[C@H](O)[C@@H](CO)O2)c(=O)n1 [Decitabine] (partner 2 µM)
Outline: as §1

AZD8055 + Palbociclib = compound: COc1ccc(-c2ccc3c(N4CCOC[C@@H]4C)nc(N4CCOC[C@@H]4C)nc3n2)cc1CO [AZD8055] + CC(=O)c1c(C)c2cnc(Nc3ccc(N4CCNCC4)cn3)nc2n(C2CCCC2)c1=O [Palbociclib] (partner 0.5 µM)
Outline: as §1

| Cell Line | relative viability (AZD8055 + Phenformin; first compound 0.01 µM) | relative viability (AZD8055 + Phenformin; first compound 0.03162 µM) | relative viability (AZD8055 + Phenformin; first compound 0.1 µM) | relative viability (AZD8055 + Phenformin; first compound 0.3162 µM) | relative viability (AZD8055 + Phenformin; first compound 1 µM) | relative viability (AZD8055 + Pictilisib; first compound 0.01 µM) | relative viability (AZD8055 + Pictilisib; first compound 0.03162 µM) | relative viability (AZD8055 + Pictilisib; first compound 0.1 µM) | relative viability (AZD8055 + Pictilisib; first compound 0.3162 µM) | relative viability (AZD8055 + Pictilisib; first compound 1 µM) | relative viability (AZD8055 + Decitabine; first compound 0.01 µM) | relative viability (AZD8055 + Decitabine; first compound 0.03162 µM) | relative viability (AZD8055 + Decitabine; first compound 0.1 µM) | relative viability (AZD8055 + Decitabine; first compound 0.3162 µM) | relative viability (AZD8055 + Decitabine; first compound 1 µM) | relative viability (AZD8055 + Palbociclib; first compound 0.01 µM) | relative viability (AZD8055 + Palbociclib; first compound 0.03162 µM) | relative viability (AZD8055 + Palbociclib; first compound 0.1 µM) | relative viability (AZD8055 + Palbociclib; first compound 0.3162 µM) | relative viability (AZD8055 + Palbociclib; first compound 1 µM) |
| --- | --- | --- | --- | --- | --- | --- | --- | --- | --- | --- | --- | --- | --- | --- | --- | --- | --- | --- | --- | --- |
| SK-MES-1 | 0.658 | 0.645 | 0.608 | 0.311 | 0.216 | 0.311 | 0.355 | 0.299 | 0.181 | 0.236 | 0.395 | 0.34 | 0.333 | 0.269 | 0.246 | 0.284 | 0.247 | 0.24 | 0.228 | 0.249 |
| NCI-H1666 | 0.619 | 0.553 | 0.584 | 0.542 | 0.488 | 0.333 | 0.491 | 0.347 | 0.272 | 0.38 | 0.744 | 0.685 | 0.627 | 0.702 | 0.685 | 0.669 | 0.643 | 0.624 | 0.652 | 0.674 |
| NCI-H1355 | 0.442 | 0.396 | 0.344 | 0.286 | 0.28 | 0.419 | 0.374 | 0.269 | 0.251 | 0.238 | 0.395 | 0.335 | 0.321 | 0.248 | 0.231 | 0.323 | 0.284 | 0.219 | 0.215 | 0.218 |
| HCC-827 | 0.426 | 0.395 | 0.416 | 0.349 | 0.288 | 1.1 | 0.875 | 0.741 | 0.495 | 0.477 | 0.329 | 0.279 | 0.278 | 0.262 | 0.23 | 0.482 | 0.406 | 0.381 | 0.227 | 0.181 |
| HARA | 0.548 | 0.478 | 0.5 | 0.307 | 0.215 | 0.372 | 0.257 | 0.198 | 0.24 | 0.17 |  | 0.355 | 0.414 | 0.321 | 0.357 | 0.223 | 0.234 | 0.216 | 0.255 | 0.171 |
| HCC-366 | 0.737 | 0.449 | 0.592 | 0.23 | 0.168 | 0.0713 | 0.137 | 0.132 | 0.0885 | 0.0934 | 0.392 | 0.233 | 0.281 | 0.144 | 0.14 | 0.311 | 0.199 | 0.0939 | 0.0508 | 0.0399 |
| NCI-H322M | 0.726 | 0.704 | 0.662 | 0.501 | 0.502 | 0.46 | 0.463 | 0.436 | 0.444 | 0.422 | 0.71 | 0.601 | 0.617 | 0.555 | 0.588 | 0.457 | 0.492 | 0.383 | 0.468 | 0.41 |
| NCI-H2347 | 0.381 | 0.283 | 0.338 | 0.178 | 0.205 | 0.65 | 0.601 | 0.357 | 0.322 | 0.428 | 0.625 | 0.533 | 0.533 | 0.495 | 0.374 | 0.428 | 0.44 | 0.384 | 0.346 | 0.352 |
| NCI-H1975 | 0.369 | 0.309 | 0.233 | 0.172 | 0.174 | 0.257 | 0.209 | 0.183 | 0.179 | 0.176 | 0.458 | 0.371 | 0.312 | 0.238 | 0.237 | 0.712 | 0.388 | 0.252 | 0.151 | 0.161 |
| UMC-11 | 0.353 | 0.311 | 0.311 | 0.264 | 0.213 | 0.905 | 0.604 | 0.503 | 0.272 | 0.254 | 0.575 | 0.472 | 0.492 | 0.317 | 0.364 | 0.341 | 0.32 | 0.299 | 0.295 | 0.288 |
| ABC-1 | 0.198 | 0.289 | 0.226 | 0.197 | 0.22 | 0.78 | 0.659 | 0.556 | 0.438 | 0.334 | 1.16 | 1.51 | 0.825 | 0.697 | 0.576 | 0.915 | 0.54 | 0.483 | 0.503 | 0.47 |
| A-427 | 0.459 | 0.381 | 0.321 | 0.25 | 0.291 | 0.747 | 0.684 | 0.677 | 0.501 | 0.507 | 0.552 | 0.491 | 0.494 | 0.415 | 0.389 | 0.516 | 0.553 | 0.467 | 0.392 | 0.409 |
| LCLC-97TM1 | 0.477 | 0.182 | 0.178 | 0.121 | 0.187 | 0.172 | 0.107 | 0.106 | 0.108 | 0.176 | 0.239 | 0.184 | 0.17 | 0.133 | 0.147 | 0.205 | 0.164 | 0.129 | 0.0928 | 0.0897 |
| HCC-15 | 0.547 | 0.459 | 0.425 | 0.286 | 0.232 | 0.806 | 0.685 | 0.631 | 0.369 | 0.338 | 0.667 | 0.587 | 0.597 | 0.319 | 0.255 | 0.858 | 0.687 | 0.667 | 0.369 | 0.275 |
| NCI-H647 | 0.564 | 0.412 | 0.331 | 0.14 | 0.15 | 0.46 | 0.329 | 0.282 | 0.16 | 0.149 | 0.35 | 0.271 | 0.198 | 0.195 | 0.126 | 0.348 | 0.219 | 0.245 | 0.102 | 0.0993 |
| SW 1573 | 0.324 | 0.218 | 0.193 | 0.163 | 0.14 | 0.504 | 0.438 | 0.38 | 0.205 | 0.181 | 0.496 | 0.316 | 0.38 | 0.195 | 0.189 | 0.342 | 0.324 | 0.159 | 0.145 | 0.133 |
